“And” between values parts separate entries of the source, which are not always exact repeats. Equal entries are not always repeated. One block for each molecule: values may come before it.
Experiments:
[1] = biological target: GABA-A receptor; anion channel; assay: Inhibition of GABAA receptor (unknown origin); format: protein-complex assay, Homo sapiens
[2] = biological target: T1, Amine oxidase [flavin-containing] A (Homo sapiens, UniProt P21397); assay: Inhibition of MAO-A (unknown origin)
T1 sequence (P21397 whole entry): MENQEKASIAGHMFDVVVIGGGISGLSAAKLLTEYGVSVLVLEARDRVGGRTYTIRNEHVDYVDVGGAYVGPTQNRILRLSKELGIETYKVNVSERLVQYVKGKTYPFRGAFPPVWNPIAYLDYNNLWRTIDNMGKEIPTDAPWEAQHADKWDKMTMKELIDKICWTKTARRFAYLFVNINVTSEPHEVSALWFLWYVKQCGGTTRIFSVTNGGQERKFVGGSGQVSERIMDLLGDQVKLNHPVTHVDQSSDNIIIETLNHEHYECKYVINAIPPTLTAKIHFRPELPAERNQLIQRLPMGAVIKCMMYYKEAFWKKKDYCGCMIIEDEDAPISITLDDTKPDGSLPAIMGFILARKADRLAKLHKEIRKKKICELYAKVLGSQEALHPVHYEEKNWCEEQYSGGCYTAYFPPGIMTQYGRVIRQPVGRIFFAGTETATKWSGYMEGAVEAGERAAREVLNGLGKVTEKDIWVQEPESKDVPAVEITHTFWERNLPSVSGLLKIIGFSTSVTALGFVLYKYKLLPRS

[3] = biological target: T2, Acetylcholinesterase (Homo sapiens, UniProt P22303); assay: Inhibition of AChE (unknown origin) incubated for 40 mins by Ellman's method
T2 sequence (P22303 whole entry): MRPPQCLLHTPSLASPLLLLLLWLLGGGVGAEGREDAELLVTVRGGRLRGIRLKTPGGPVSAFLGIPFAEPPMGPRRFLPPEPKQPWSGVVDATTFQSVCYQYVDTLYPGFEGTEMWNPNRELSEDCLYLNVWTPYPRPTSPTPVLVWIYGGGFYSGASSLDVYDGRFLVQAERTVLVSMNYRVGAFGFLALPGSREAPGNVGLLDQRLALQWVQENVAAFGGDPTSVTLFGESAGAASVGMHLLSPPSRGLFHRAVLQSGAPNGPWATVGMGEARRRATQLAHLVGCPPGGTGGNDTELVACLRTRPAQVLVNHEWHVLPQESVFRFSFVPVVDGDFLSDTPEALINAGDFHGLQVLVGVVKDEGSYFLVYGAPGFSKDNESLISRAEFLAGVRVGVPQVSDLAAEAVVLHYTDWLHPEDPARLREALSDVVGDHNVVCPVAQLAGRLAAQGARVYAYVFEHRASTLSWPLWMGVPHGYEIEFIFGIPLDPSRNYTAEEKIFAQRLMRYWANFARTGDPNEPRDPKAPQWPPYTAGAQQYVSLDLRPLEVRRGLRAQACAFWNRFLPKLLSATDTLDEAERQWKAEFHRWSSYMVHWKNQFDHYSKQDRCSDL

[4] = biological target: T3, Cholinesterase (Homo sapiens, UniProt P06276); assay: Inhibition of BuChE (unknown origin) using acetylthiocholine iodide as substrate incubated for 20 mins followed by substrate addition by Ellman's method
T3 sequence (P06276 whole entry): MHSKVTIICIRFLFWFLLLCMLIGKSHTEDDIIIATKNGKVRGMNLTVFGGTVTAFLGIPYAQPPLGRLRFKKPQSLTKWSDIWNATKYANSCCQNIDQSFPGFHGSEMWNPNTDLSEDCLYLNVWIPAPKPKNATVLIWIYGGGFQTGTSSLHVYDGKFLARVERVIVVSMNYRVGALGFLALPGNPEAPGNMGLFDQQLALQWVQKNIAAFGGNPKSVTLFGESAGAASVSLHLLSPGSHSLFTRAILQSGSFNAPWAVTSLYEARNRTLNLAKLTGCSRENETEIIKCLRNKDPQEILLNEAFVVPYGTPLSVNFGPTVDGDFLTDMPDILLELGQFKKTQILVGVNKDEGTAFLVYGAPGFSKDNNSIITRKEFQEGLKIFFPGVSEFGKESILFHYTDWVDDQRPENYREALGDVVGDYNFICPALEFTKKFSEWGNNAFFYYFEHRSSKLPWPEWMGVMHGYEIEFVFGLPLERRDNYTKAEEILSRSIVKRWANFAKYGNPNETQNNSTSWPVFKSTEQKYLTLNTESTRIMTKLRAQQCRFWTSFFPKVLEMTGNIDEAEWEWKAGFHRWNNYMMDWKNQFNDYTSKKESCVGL

[5] = biological target: T2, Acetylcholinesterase; assay: Inhibition of AChE (unknown origin) using acetylthiocholine iodide as substrate incubated for 20 mins followed by substrate addition by Ellman's method
[6] = biological target: T4, Gamma-aminobutyric acid receptor subunit alpha-5 (Homo sapiens, UniProt P31644); assay: Binding affinity to human recombinant GABAA alpha5 receptor assessed as inhibition constant incubated for 1 hrs by liquid scintillation counting analysis
T4 sequence (P31644 whole entry): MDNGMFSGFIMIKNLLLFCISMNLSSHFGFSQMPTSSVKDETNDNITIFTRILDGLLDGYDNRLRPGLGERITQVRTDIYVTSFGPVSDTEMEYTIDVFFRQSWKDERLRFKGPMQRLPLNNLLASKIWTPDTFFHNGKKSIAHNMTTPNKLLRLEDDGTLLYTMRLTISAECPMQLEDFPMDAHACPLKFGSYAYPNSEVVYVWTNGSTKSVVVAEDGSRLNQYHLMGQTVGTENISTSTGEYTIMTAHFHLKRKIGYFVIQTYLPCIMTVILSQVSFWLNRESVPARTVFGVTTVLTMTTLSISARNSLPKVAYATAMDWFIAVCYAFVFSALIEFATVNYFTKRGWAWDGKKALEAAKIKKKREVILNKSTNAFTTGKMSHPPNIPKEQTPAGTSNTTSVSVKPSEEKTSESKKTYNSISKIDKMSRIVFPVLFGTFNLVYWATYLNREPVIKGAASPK

[7] = biological target: T5, Gamma-aminobutyric acid receptor subunit alpha-3 (Homo sapiens, UniProt P34903); assay: Binding affinity to human recombinant GABAA alpha3 receptor assessed as inhibition constant incubated for 1 hrs by liquid scintillation counting analysis
T5 sequence (P34903 whole entry): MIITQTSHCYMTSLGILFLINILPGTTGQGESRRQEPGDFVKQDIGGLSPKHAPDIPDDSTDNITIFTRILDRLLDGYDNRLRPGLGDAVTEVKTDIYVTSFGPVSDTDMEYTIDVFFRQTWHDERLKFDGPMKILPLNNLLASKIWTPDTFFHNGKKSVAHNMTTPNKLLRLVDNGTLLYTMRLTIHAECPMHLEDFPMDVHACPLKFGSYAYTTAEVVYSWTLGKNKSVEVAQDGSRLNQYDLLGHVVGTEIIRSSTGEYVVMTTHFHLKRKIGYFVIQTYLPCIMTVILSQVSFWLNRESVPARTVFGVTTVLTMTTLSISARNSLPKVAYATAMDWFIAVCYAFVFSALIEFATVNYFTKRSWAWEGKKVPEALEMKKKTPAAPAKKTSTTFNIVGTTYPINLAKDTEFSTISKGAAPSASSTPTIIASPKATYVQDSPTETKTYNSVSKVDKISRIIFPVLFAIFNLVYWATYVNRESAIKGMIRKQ

[8] = biological target: Gamma-aminobutyric acid receptor subunit alpha-6 (Homo sapiens, UniProt Q16445); assay: Binding affinity to human recombinant GABAA alpha6 receptor assessed as inhibition constant incubated for 1 hrs by liquid scintillation counting analysis
Chain of Gamma-aminobutyric acid receptor subunit alpha-6 (Q16445 whole entry): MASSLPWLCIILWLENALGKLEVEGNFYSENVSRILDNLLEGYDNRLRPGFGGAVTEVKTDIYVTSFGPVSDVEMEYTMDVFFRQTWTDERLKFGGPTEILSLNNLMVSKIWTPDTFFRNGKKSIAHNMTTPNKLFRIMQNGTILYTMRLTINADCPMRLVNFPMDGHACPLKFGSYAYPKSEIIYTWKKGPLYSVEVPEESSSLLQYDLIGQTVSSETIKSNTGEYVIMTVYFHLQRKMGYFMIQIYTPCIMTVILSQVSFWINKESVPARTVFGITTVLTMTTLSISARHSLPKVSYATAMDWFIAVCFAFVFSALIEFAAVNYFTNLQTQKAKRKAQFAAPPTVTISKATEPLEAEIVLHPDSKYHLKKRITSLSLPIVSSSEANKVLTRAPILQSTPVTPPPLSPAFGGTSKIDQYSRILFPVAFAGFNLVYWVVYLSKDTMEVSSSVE

[9] = biological target: T6, Gamma-aminobutyric acid receptor subunit alpha-2 (Homo sapiens, UniProt P47869); assay: Binding affinity to human recombinant GABAA alpha2 receptor assessed as inhibition constant incubated for 1 hrs by liquid scintillation counting analysis
T6 sequence (P47869 whole entry): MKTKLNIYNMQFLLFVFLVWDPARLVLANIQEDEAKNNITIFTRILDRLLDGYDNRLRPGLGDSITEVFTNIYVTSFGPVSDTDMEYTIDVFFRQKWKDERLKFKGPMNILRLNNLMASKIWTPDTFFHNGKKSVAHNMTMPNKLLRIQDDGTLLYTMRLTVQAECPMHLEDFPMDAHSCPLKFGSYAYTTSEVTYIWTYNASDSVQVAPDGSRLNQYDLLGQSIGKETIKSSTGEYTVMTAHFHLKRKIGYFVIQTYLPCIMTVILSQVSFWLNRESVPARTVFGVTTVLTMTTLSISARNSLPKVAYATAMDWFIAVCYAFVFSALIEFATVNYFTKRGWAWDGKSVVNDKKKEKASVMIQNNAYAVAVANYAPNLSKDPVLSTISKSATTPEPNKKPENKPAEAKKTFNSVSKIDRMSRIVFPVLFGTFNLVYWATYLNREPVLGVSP

[10] = biological target: T7, Gamma-aminobutyric acid receptor subunit alpha-1 (Homo sapiens, UniProt P14867); assay: Binding affinity to human recombinant GABAA alpha1 receptor assessed as inhibition constant incubated for 1 hrs by liquid scintillation counting analysis
T7 sequence (P14867 whole entry): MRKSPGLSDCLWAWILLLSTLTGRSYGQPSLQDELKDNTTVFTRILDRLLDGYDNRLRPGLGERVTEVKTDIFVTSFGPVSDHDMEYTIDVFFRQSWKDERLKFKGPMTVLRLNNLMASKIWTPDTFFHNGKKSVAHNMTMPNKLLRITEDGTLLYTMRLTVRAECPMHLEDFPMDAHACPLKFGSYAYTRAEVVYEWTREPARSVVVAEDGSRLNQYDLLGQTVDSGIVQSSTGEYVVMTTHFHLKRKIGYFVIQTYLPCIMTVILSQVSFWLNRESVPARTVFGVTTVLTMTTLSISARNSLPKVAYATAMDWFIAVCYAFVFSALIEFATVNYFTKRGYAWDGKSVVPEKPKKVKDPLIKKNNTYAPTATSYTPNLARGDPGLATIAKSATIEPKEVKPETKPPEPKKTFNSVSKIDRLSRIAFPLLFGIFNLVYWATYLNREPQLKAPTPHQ

[11] = biological target: Gamma-aminobutyric acid receptor subunit alpha-4 (Homo sapiens, UniProt P48169); assay: Binding affinity to human recombinant GABAA alpha4 receptor assessed as inhibition constant incubated for 1 hrs by liquid scintillation counting analysis
Chain of Gamma-aminobutyric acid receptor subunit alpha-4 (P48169 whole entry): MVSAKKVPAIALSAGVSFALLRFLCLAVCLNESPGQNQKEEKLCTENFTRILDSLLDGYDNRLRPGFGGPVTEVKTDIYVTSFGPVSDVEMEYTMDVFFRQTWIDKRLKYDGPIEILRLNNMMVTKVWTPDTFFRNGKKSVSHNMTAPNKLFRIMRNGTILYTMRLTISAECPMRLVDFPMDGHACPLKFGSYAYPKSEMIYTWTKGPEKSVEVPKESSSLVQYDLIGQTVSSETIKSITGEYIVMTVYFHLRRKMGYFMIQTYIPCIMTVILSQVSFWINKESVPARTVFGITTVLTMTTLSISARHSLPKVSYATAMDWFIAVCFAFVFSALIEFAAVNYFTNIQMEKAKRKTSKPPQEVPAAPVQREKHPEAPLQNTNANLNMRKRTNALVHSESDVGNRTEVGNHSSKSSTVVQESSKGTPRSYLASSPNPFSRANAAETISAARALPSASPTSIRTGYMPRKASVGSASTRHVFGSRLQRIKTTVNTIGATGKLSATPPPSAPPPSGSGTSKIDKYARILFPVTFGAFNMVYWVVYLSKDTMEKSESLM

[12] = biological target: 5-hydroxytryptamine receptor 2B (Rattus norvegicus, UniProt P30994); assay: Displacement of [3H]-ketanserin from rat 5-HT2B expressed in mouse NIH/3T3 cells assessed as inhibition constant by Cheng-Prusoff equation analysis; format: cell-based
Chain of 5-hydroxytryptamine receptor 2B (Rattus norvegicus, UniProt P30994) (P30994 whole entry): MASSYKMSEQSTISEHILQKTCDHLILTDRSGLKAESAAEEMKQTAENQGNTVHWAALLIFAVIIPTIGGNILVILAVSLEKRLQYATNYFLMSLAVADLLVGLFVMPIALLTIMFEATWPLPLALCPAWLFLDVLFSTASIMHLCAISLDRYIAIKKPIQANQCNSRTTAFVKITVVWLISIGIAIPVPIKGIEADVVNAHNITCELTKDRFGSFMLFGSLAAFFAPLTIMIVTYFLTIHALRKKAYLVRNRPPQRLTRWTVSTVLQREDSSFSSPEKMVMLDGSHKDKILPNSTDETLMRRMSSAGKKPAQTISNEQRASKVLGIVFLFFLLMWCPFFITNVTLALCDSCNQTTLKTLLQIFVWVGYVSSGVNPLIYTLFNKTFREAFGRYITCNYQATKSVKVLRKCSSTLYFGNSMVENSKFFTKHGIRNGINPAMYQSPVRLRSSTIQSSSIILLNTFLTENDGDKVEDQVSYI

[13] = biological target: 5-hydroxytryptamine receptor 2B (Homo sapiens, UniProt P41595); assay: Binding affinity to 5-HT2B (unknown origin) assessed as equilibrium binding constant
Chain of 5-hydroxytryptamine receptor 2B (Homo sapiens, UniProt P41595) (P41595 whole entry): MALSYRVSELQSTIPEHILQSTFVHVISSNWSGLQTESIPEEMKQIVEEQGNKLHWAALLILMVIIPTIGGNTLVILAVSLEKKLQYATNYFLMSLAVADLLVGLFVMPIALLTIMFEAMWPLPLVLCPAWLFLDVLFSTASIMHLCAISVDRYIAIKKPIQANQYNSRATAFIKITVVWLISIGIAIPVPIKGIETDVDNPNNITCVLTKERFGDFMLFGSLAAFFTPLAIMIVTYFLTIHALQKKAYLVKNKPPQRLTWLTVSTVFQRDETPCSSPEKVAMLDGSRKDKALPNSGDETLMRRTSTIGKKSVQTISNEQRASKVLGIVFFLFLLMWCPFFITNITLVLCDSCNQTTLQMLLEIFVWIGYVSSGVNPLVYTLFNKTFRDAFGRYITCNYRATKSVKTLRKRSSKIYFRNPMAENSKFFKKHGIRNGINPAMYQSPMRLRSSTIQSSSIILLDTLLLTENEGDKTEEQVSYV

[14] = biological target: T3, Cholinesterase; assay: Inhibition of BuChE (unknown origin)

SMILES: COCc1c(-c2cc(C)on2)ncc2[nH]c3ccc4oc(C(C)C)nc4c3c12
IC50 [1]: 0.9 nM

SMILES: COCc1c(C(=O)OC(C)C)ncc2[nH]c3ccc4nc5c(nc4c3c12)CCCC5
IC50 [1]: 0.8 nM

SMILES: Cc1nccc2c1[nH]c1cc(OCCc3ccccc3)ccc12
IC50 [2]: 5 nM

SMILES: Cc1ccc([N+]2=Cc3c(c4ccccc4n3C)CC2)cc1
IC50 [3]: 1500 nM

SMILES: Cn1c2c(c3ccccc31)CC[N+](c1ccc(Br)cc1)=C2
IC50 [3]: 1500 nM

SMILES: c1ccc2c(c1)CN1CCc3c([nH]c4ccccc34)C1=N2
IC50 [4]: 500 nM
IC50 [5]: 3400 nM

SMILES: C#Cc1ccc2[nH]c3cnc(C(=O)OC(C)(C)C)cc3c2c1
Ki [11]: 2000 nM
Ki [6]: 210 nM
Ki [7]: 100 nM
Ki [8]: 2000 nM
Ki [10]: 1 nM

SMILES: C=C[C@H]1C[N+]2=C(C[C@@H]1/C(=C\OC)C(=O)OC)c1[nH]c3cccc(OC)c3c1CC2
IC50 [5]: 4100 nM

SMILES: COCc1c(C(=O)OC(C)C)ncc2[nH]c3ccc4nccnc4c3c12
IC50 [1]: 0.8 nM

SMILES: C=CCOc1ccc2c(c1)[nH]c1c(C)nccc12
IC50 [2]: 5 nM

SMILES: COc1ccc2c3ccnc(C)c3n(C)c2c1
IC50 [2]: 11 nM

SMILES: Cc1nccc2c1[nH]c1cc(OCCCC(F)(F)F)ccc12
IC50 [2]: 5 nM

SMILES: Cn1c2ccccc2c2cc[n+](-c3ccc(Br)cc3)cc21
IC50 [14]: 32000 nM and 116000 nM
IC50 [3]: 240 nM

SMILES: Cn1c2c(c3ccccc31)CC[N+](c1ccc(Br)cc1Br)=C2
IC50 [3]: > 10000 nM

SMILES: Cc1cc2cc3n(c(=O)c2cn1)CCc1c-3[nH]c2ccccc12
IC50 [4]: 1000 nM
IC50 [5]: 22000 nM

Other lines, results leading:

Ki [6]: 230 nM
Ki [7]: 11 nM
Ki [8]: > 10000 nM
Ki [9]: 12 nM
Ki [10]: 3 nM
IC50 [1]: 4 nM
SMILES: COc1ccc2c(c1)[nH]c1c2ncc2[nH]c3ccccc3c21

Ki [12]: 0.1 nM
Kb [13]: 0.08 nM
SMILES: COc1ccc(CC2NCCc3c2[nH]c2cccc(C)c32)cc1OC (stereo not drawn)

Ki [12]: 0.2 nM
Kb [13]: < 0.3 nM
SMILES: COc1ccc(CC2NCCc3c2[nH]c2ccc(C)cc32)c(Br)c1OC (stereo not drawn)

Ki [12]: 0.4 nM
Kb [13]: 0.4 nM
SMILES: c1ccc2c(CC3NCCc4c3[nH]c3ccccc43)cccc2c1 (stereo not drawn)

Ki [12]: 0.1 nM
Kb [13]: < 0.3 nM
SMILES: CCc1cccc2[nH]c3c(c12)CCNC3Cc1ccc(OC)c(OC)c1 (stereo not drawn)

IC50 [2]: 30 nM
SMILES: COCc1ccc2c(c1)[nH]c1c(C)nccc12

Ki [6]: 210 nM
Ki [7]: 24 nM
Ki [8]: > 10000 nM
Ki [9]: 12 nM
Ki [10]: 4 nM
IC50 [1]: 4 nM
SMILES: Clc1ccc2c(c1)[nH]c1c2ncc2[nH]c3ccccc3c21
